Values quoted from earlier work, collected in US20150025006A1, “Pharmaceutical Combinations Including Anti-Inflammatory and Antioxidant Conjugates Useful for Treating Metabolic Disorders” (Genmedica Therapeutics SL, priority 2011, published 2015).

Legend:
[1] = tested on: Zucker fa/fa rats or ob/ob mice; details: 120 mg/kg/day, subcutaneous infusion, 3-4 weeks
human diabetic patients = details: 4.5 g/day of salsalate

For O=C(O)c1ccccc1O [Salicylate], the anti-diabetic effects [1] is given as “anti-diabetic effects, reduction in fasting blood glucose, and glucose tolerance improvement”.
In the case of O=C(Oc1ccccc1C(=O)O)c1ccccc1O [salsalate], the “side effects, such as tinnitus, enhanced by” value (human diabetic patients) is given as 66%.
